# Laboratory results: paper PMC5099944, “Design, synthesis and biological evaluation of hybrids of β-carboline and salicylic acid as potential anticancer and apoptosis inducing agents” (Scientific Reports, 2016)
# Entries after “also recorded” stand apart in the source; their conditions may differ.
# Legend:
# SMMC-7721 cells [1] = assay: MTT assay, proliferation of SMMC-7721 cells; assay type: cell-based, human; settings: Homo sapiens; for IC50: SMMC-7721, 48 h, read-out: In vitro cytotoxicity (IC50) SMMC-7721, MTT assay, 48 h, SMMC-7721 human hepatocellular carcinoma cells
# Method: (§1) The in vitro antitumor activities of the synthesized compounds 7a-l and 8a-l against five human cancer cells were evaluated in MTT assays using 5-fluorouracil (5-FU) and harmine as positive controls. These cells are human hepatocellular carcinoma cells (SMMC-7721 and Hep G2), human colon cancer cell lines (HCT116), human bladder carcinoma cells (EJ), and human lung cancer cells (H460).
# (§2) Hepatocellular carcinoma cells (SMMC-7721 and Hep G2), Human colon cancer cell lines (HCT116), human bladder carcinoma cells (EJ) or human lung cancer cells (H460) at 10^4 cells per well were cultured in 10% FBS DMEM in 96-well flat-bottom microplates overnight. The cells were incubated in triplicate with, or without, different concentrations of each test compound for 48 h. During the last 4 h incubation, 30 μL of tetrazolium dye (MTT) solution (5 mg mL^−1) was added to each well. The resulting MTT-formazan crystals were dissolved in 150 μL DMSO, and absorbance was measured spectrophotometrically at 570 nm using an ELISA plate reader. The inhibition induced by each test compound at the indicated concentrations was expressed as a percentage. The concentration required for 50% inhibition (IC50) was calculated using the software (GraphPadPrism Version 4.03).
# LO2 cells = assay: MTT assay, proliferation of normal liver LO2 cells; assay type: cell-based, human; settings: 25 μM, 48 h, MTT assay
# Method: Given the strong growth inhibitory activity of 8h in vitro, it was profiled for antitumor selectivity by examining its inhibitory effects on the growth of SMMC-7721 cells and LO2 cells (human hepatocellular normal cells).
# Figure 3 (A) Inhibitory effects of 8h on the proliferation of SMMC-7721 and LO2 cells. Cells were incubated with the indicated concentrations of 8h for 48 h. Cell proliferation was assessed using the MTT assay. Data are means ± SD of the inhibition (%) from three independent experiments. (B) Inhibitory effects of 5h, 8h, and SA or the vehicle control against SMMC-7721 and LO2 cells. SMMC-7721 and LO2 cells were incubated with the indicated compounds at 25 μM for 48 h, and cell proliferation was assessed by the MTT assay. Data are means ± SD of the inhibition (%) from three independent experiments. *P < 0.01 versus control of SMMC-7721, ^#P < 0.01 inhibitory effects of 8h in SMMC-7721 versus LO2 cells.
# as §2
# SMMC-7721 cells [2] = assay: Flow cytometry assay of cell apoptosis (FITC-Annexin V/PI); assay type: cell-based, human; settings: 14 μM, 48 h
# Method: To determine whether apoptosis is involved in the anti-proliferative effects of 8h, apoptosis assay was performed using SMMC-7721 cells. The cells were incubated with either vehicle alone, different concentrations of 8h (7.0 or 14 μM), or 14 μM 5-FU for 48 h, and then stained with FITC-Annexin V and propidium iodide (PI). The percentages of apoptotic SMMC-7721 cells were determined by flow cytometry analysis. In the vehicle group, the occurrence of SMMC-7721 cell apoptosis was minimal. […] Low concentration of 8h (7.0 μM) induced 46% SMMC-7721 cell apoptosis, while the higher dose (14 μM) of 8h induced 63% SMMC-7721 cell apoptosis.
# Figure 4 Compound 8h induced SMMC-7721 cell apoptosis in vitro. SMMC-7721 cells were incubated with the indicated concentrations of 8h and 14 μM 5-FU for 48 h, and the cells were stained with FITC-Annexin V and PI, followed by flow cytometry analysis. (A) Flow cytometry analysis. (B) Quantitative analysis of apoptotic cells. Data are expressed as means ± SD of the percentages of apoptotic cells from three independent experiments. *P < 0.01 vs control.
# SMMC-7721 cells were cultured overnight and incubated in triplicate with compound 8h (7.0 and 14 μM), 5-FU (14 μM), or vehicle for 48 h. The cells were harvested, and stained with FITC-Annexin V and PI (BioVision) at room temperature for 15 min. The percentage of apoptotic cells was determined by flow cytometry (Beckman Coulter) analysis.
# HCT116 cells = assay: MTT assay, proliferation of HCT116 cells; assay type: cell-based; settings: Homo sapiens, HCT-116, 48 h, read-out: In vitro cytotoxicity (IC50) HCT116
# Method: as §1, §2
# Hep G2 cells = assay: MTT assay, proliferation of Hep G2 cells; assay type: cell-based; settings: Homo sapiens, HepG2, 48 h, read-out: In vitro cytotoxicity (IC50) Hep G2
# Method: as §1, §2
# [3] = tested on: human cancer cells (SMMC-7721, Hep G2, HCT116, EJ, H460); assay: MTT assay, summary statements across several human cancer cell lines; assay type: cell-based; settings: Homo sapiens; SMMC-7721, Hep G2, HCT116; MTT; read-out: IC50 values for liver and colon cancer cells growth (range over cell lines)
# Method: as §1, §2
IC50 [3] [µM],SMILES,IC50 (SMMC-7721 cells [1]) [µM],"inhibition at 25 µM (SMMC-7721 cells [1]; SMMC-7721, 25 μM, 48 h, MTT assay, read-out: Inhibition of SMMC-7721 cell proliferation) [%]",Inhibitory effect on LO2 cells (LO2 cells),SMMC-7721 cell apoptosis (percentage of apoptotic cells) (SMMC-7721 cells [2]) [%],IC50 (HCT116 cells) [µM],IC50 (Hep G2 cells) [µM]
–,"Cc1nc(C(=O)NCCCCCN)cc2c1[nH]c1ccccc12 [5h, N-(5-Aminopentyl)-1-methyl-9H-pyrido[3,4-b]indole-3-carboxamide]",27.2 ± 3.4,~42,a similar effect was seen in the non-tumor LO2 cells; also recorded: high toxicities,–,–,–
19.6 to 35.2,"O=c1[nH]cc(F)c(=O)[nH]1 [5-FU, 5-fluorouracil, reference compound]",28.7,–,–,22,19.6,35.2
